Data as given in patent US20050004167A1, “Branched chain amino acid-dependent aminotransferase inhibitors and their use in the treatment of neurodegenerative diseases” (WARNER-LAMBERT COMPANY LLC, priority 2001, published 2005).
Values joined by “and” are separate entries in the source; they are usually repeats but may differ in a detail not shown here. Equal values may be shown once.

Key:
rat BCAT cytosolic form = molecular target: T1, rat BCAT cytosolic form (Rattus norvegicus, UniProt P54690); assay: In vitro coupled enzyme assay (glutamate dehydrogenase, NADH formation), rat BCATc; format: biochemical; conditions: recombinant rat BCATc, 37° C., 25 mM phosphate buffer pH 7.8; several values in a cell = repeat determinations; read-out: RrBCATc
T1 construct: made in house; host or cells: E. coli BL21(DE3)
T1 sequence (P54690 1-411): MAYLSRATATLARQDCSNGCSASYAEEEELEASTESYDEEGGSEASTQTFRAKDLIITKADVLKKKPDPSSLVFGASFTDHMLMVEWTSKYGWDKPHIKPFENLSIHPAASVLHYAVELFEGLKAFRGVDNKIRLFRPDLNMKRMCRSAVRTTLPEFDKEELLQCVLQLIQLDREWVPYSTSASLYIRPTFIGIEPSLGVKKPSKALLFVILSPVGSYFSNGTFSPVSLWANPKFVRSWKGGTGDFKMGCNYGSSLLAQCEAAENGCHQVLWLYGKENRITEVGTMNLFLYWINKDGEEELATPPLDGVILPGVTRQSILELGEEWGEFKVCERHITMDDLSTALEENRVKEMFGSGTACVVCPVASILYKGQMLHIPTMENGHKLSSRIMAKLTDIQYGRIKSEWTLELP
Summary of the method: (§1)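 At 37 °C in 25 mM phosphate pH 7.8 with 2 mM DTT, 1.25 μg His-tag-purified E. coli-expressed BCAT transaminated 750 μM L-leucine with 500 μM α-ketoglutarate and 10 μM PLP. Glutamate was coupled via glutamate dehydrogenase (1 mM NAD+, 4 mM ADP) to NADH formation at 340 nm. Compounds were added in DMSO up to 5% v/v.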

[1] = molecular target: T2, human Branched Chain Amino Acid Aminotransferase cytosolic form (hBCATc) (Homo sapiens, UniProt P54687); assay: In vitro coupled enzyme assay (glutamate dehydrogenase, NADH formation), human BCATc; format: biochemical; conditions: recombinant human BCATc, 37° C., 25 mM phosphate buffer pH 7.8; several values in a cell = repeat determinations; read-out: RhBCATc
T2 construct: made in house; host or cells: E. coli BL21(DE3)
T2 sequence (P54687 1-386): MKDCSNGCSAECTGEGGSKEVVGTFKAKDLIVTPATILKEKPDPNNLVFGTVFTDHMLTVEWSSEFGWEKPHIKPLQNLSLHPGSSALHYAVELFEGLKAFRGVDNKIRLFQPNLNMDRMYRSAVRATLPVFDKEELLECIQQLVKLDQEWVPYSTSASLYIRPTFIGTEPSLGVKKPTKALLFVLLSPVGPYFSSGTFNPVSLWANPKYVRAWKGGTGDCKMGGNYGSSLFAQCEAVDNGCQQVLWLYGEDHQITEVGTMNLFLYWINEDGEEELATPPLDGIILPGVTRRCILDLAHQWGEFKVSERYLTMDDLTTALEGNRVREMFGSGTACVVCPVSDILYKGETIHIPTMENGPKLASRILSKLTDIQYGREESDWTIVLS
Summary of the method: as §1

## O=C(NNS(=O)(=O)c1ccc(F)cc1)c1cc2cc(Cl)ccc2o1 [Example 22, 2-Benzofurancarboxylic acid, 5-chloro-2-[(4-fluorophenyl)]sulfonyl hydrazide]
other
  melting point: 229.4 to 230.5 °C
Rat BCAT cytosolic form
  IC50: 4.1 µM
[1]
  IC50: 24.6 µM

## COc1cccc2cc(C(=O)NNS(=O)(=O)c3ccccc3)oc12 [Example 5, 7-Methoxy-2-benzofurancarboxylic acid 2-(phenylsulfonyl)hydrazide]
other
  melting point: 164 to 165 °C
Rat BCAT cytosolic form
  IC50: 0.86 µM and 0.46 µM and 0.53 µM
[1]
  IC50: 5.76 µM and 3 µM

## O=C(NNS(=O)(=O)c1ccccc1OC(F)(F)F)c1cc2cc(Cl)ccc2o1 [Example 52, 2-Benzofurancarboxylic acid, 5-chloro-2-[[2-(trifluoromethoxy)phenyl]sulfonyl]-hydrazide]
other
  melting point: 218.2 to 219.8 °C
Rat BCAT cytosolic form
  IC50: 0.3 µM
[1]
  IC50: 2.19 µM

## Cc1ccc(F)cc1S(=O)(=O)NNC(=O)c1ccc2oc3ccccc3c2c1 [Example 36, 2-Dibenzofurancarboxylic acid 2-[(5-fluoro-2-methylphenyl)sulfonyl]hydrazide]
other
  melting point: 210.1 to 210.5 °C
Rat BCAT cytosolic form
  IC50: 1.1 µM
[1]
  IC50: 17.5 µM and 18.2 µM

## O=C(NNS(=O)(=O)c1ccc(F)cc1Cl)c1cc2cc(Cl)ccc2o1 [Example 30, 2-Benzofurancarboxylic acid, 5-chloro-, 2-[(2-chloro-4-fluorophenyl)sulfonyl]-hydrazide]
other
  melting point: 204.6 to 206.2 °C
Rat BCAT cytosolic form
  IC50: 5.7 µM
[1]
  IC50: 25 µM

## O=C(NNS(=O)(=O)c1ccccc1OC(F)(F)F)c1cc2cc(Cl)cc(Cl)c2o1 [Example 76, 2-Benzofurancarboxylic acid, 5,7-dichloro 2-[[2-(trifluoromethoxy)phenyl]-sulfonyl]hydrazide]
other
  melting point: 234.5 to 236.1 °C
Rat BCAT cytosolic form
  IC50: 1.51 µM
[1]
  IC50: 11.2 µM

## N#Cc1cccc(S(=O)(=O)NNC(=O)c2ccc3oc4ccccc4c3c2)c1 [Example 26, 2-Dibenzofurancarboxylic acid 2-[(3-cyanophenyl)sulfonyl]hydrazide]
other
  melting point: 234 to 236 °C
Rat BCAT cytosolic form
  IC50: 15.2 µM and 6.9 µM
[1]
  IC50: 138 µM

## O=C(NNS(=O)(=O)c1ccccc1C(F)(F)F)c1cc2cc(Cl)cc(Cl)c2o1 [Example 70]
other
  melting point: 245.6 to 247.6 °C
Rat BCAT cytosolic form
  IC50: 0.43 µM
[1]
  IC50: 11.6 µM

## O=C(NNS(=O)(=O)c1ccc(F)c(F)c1)c1cc2cc(Cl)ccc2o1 [Example 41, 2-Benzofurancarboxylic acid, 5-chloro-2-[(3,4-difluorophenyl)sulfonyl]hydrazide]
other
  melting point: 193.8 to 195 °C
Rat BCAT cytosolic form
  IC50: 14.5 µM
[1]
  IC50: 28.8 µM

## O=C(NNS(=O)(=O)c1cc(Cl)cc(Cl)c1)c1cc2cc(Cl)ccc2o1 [Example 31, 2-Benzofurancarboxylic acid, 5-chloro-, 2-[(3,5-dichlorophenyl)sulfonyl]-hydrazide]
other
  melting point: 242.5 to 243.3 °C
Rat BCAT cytosolic form
  IC50: 0.81 µM
[1]
  IC50: 2.6 µM and 4.3 µM

## Cc1c(Cl)cccc1S(=O)(=O)NNC(=O)c1ccc2oc3ccccc3c2c1 [Example 19, Dibenzofuran-2-carboxylic acid 2-(3-chloro-2-methyl-phenylsulfonyl)hydrazide]
other
  melting point: 192 to 194 °C
Rat BCAT cytosolic form
  IC50: 0.22 µM
[1]
  IC50: 6.7 µM

## O=C(NNS(=O)(=O)c1cccc(Cl)c1)c1cc2cc(Cl)cc(Cl)c2o1 [Example 75, 2-Benzofurancarboxylic acid, 5,7-dichloro 2-[(3-chlorophenyl)sulfonyl]-hydrazide]
other
  melting point: 245.6 to 245.7 °C
Rat BCAT cytosolic form
  IC50: 0.88 µM
[1]
  IC50: > 10 µM and 5.4 µM

## COc1cccc2cc(C(=O)NNS(=O)(=O)c3ccc(F)cc3)oc12 [Example 23, 2-Benzofurancarboxylic acid, 7-methoxy-, 2-[(4-fluoro-phenyl)sulfonyl]hydrazide]
other
  melting point: 182.7 to 183.3 °C
Rat BCAT cytosolic form
  IC50: 5.4 µM
[1]
  IC50: 17.8 µM

## O=C(NNS(=O)(=O)c1ccc(F)c(F)c1)c1ccc2oc3ccccc3c2c1 [Example 37, 2-Dibenzofurancarboxylic acid 2-[(3,4-difluorophenyl)sulfonyl]hydrazide]
other
  melting point: 210.1 to 210.5 °C
Rat BCAT cytosolic form
  IC50: 3.5 µM
[1]
  IC50: 41.3 µM

## O=C(NNS(=O)(=O)c1cccc(F)c1)c1ccc2oc3ccccc3c2c1 [Example 35, 2-Dibenzofurancarboxylic acid 2-[(3-fluorophenyl)sulfonyl]hydrazide]
other
  melting point: 222.6 to 223.3 °C
Rat BCAT cytosolic form
  IC50: 0.31 µM
[1]
  IC50: 3.57 µM

## COc1ccc2oc(C(=O)NNS(=O)(=O)c3ccccc3)c(OC)c2c1 [Example 58, 2-Benzofurancarboxylic acid, 3,5-dimethoxy-, 2-(phenylsulfonyl)hydrazide]
other
  melting point: 172.2 to 173.8 °C
Rat BCAT cytosolic form
  IC50: 0.22 µM
[1]
  IC50: 3.57 µM

## O=C(NNS(=O)(=O)c1ccc(F)c(Cl)c1)c1ccc2oc3ccccc3c2c1 [Example 38, 2-Dibenzofurancarboxylic acid 2-[(3-chloro-4-fluorophenyl)sulfonyl]hydrazide]
other
  melting point: 210.8 to 211.6 °C
Rat BCAT cytosolic form
  IC50: 0.77 µM and 0.61 µM
[1]
  IC50: 29.9 µM

## COc1cccc(S(=O)(=O)NNC(=O)c2ccc3oc4ccccc4c3c2)c1 [Example 39, 2-Dibenzofurancarboxylic acid 2-[(3-methoxyphenyl)sulfonyl]hydrazide]
other
  melting point: 199.5 to 200.5 °C
Rat BCAT cytosolic form
  IC50: 0.21 µM
[1]
  IC50: 2.29 µM

## Cc1cccc(S(=O)(=O)NNC(=O)c2cc3cc(Cl)cc(Cl)c3o2)c1 [Example 72, 2-Benzofurancarboxylic acid, 5,7-dichloro 2-[(3-methylphenyl)sulfonyl]-hydrazide]
other
  melting point: 230.4 to 231.1 °C
Rat BCAT cytosolic form
  IC50: 1.86 µM
[1]
  IC50: > 10 µM and 5.35 µM

## O=C(NNS(=O)(=O)c1cccc(Cl)c1)c1ccc2oc3ccccc3c2c1 [Example 16, 2-Dibenofurancarboxylic acid 2-[(3-chlorophenyl)sulfonyl]hydrazide]
other
  melting point: 208 to 209 °C
Rat BCAT cytosolic form
  IC50: 0.39 µM and 0.2 µM
[1]
  IC50: 3 µM and 3.1 µM

## COc1cccc(S(=O)(=O)NNC(=O)c2cc3cc(Cl)ccc3o2)c1 [Example 48, 2-Benzofurancarboxylic acid, 5-chloro-2-[(3-methoxyphenyl)sulfonyl]hydrazide]
other
  melting point: 204.3 to 204.6 °C
Rat BCAT cytosolic form
  IC50: 0.91 µM
[1]
  IC50: 4.21 µM and 7.6 µM

## Cc1ccccc1S(=O)(=O)NNC(=O)c1cc2cc(Cl)cc(Cl)c2o1 [Example 71, 2-Benzofurancarboxylic acid, 5,7-dichloro 2-[(2-methylphenyl)sulfonyl]hydrazide]
other
  melting point: 212 to 214 °C
Rat BCAT cytosolic form
  IC50: 0.88 µM
[1]
  IC50: 6.57 µM

## O=C(NNS(=O)(=O)c1ccccc1OC(F)(F)F)c1cnc2ccccc2c1 [Example 137, 3-Quinolinecarboxylic acid, 2-[(2-trifluoromethoxyphenyl)sulfonyl]hydrazide]
other
  melting point: 175.1 to 175.9 °C
Rat BCAT cytosolic form
  IC50: 14 µM
[1]
  IC50: 41 µM

## O=C(NNS(=O)(=O)c1cccc(Cl)c1Cl)c1ccc2ccccc2c1 [Example 120, 2-Naphthalenecarboxylic acid, 2-[(2,3-dichlorophenyl)sulfonyl]hydrazide]
Rat BCAT cytosolic form
  IC50: 2 µM
[1]
  IC50: 18.1 µM

## O=C(NNS(=O)(=O)c1ccccc1)c1cc2cc(Br)ccc2o1 [Example 29, 2-Benzofurancarboxylic acid, 5-bromo-, 2-(phenylsulfonyl)hydrazide]
Rat BCAT cytosolic form
  IC50: 0.29 µM
[1]
  IC50: 10.1 µM

## Cc1ccc2oc(C(=O)NNS(=O)(=O)c3ccccc3C(F)(F)F)cc2c1 [Example 79, 2-Benzofurancarboxylic acid, 5-methyl-, 2-[[2-(trifluoromethyl)phenyl]sulfonyl]-hydrazide]
Rat BCAT cytosolic form
  IC50: 0.22 µM
[1]
  IC50: 16.9 µM and 1.81 µM

## O=C(NNS(=O)(=O)c1ccccc1)c1ccc2[nH]ccc2c1 [Example 153, 1H-Indole-5-carboxylic acid 2-(phenylsulfonyl)hydrazide]
Rat BCAT cytosolic form
  IC50: 1.9 µM
[1]
  IC50: 15.3 µM

## COc1cccc2cc(C(=O)NNS(=O)(=O)c3cccc(Cl)c3)oc12 [Example 102, 2-Benzofurancarboxylic acid, 7-methoxy-, 2-[(3-chlorophenyl)sulfonyl]hydrazide]
Rat BCAT cytosolic form
  IC50: 0.37 µM
[1]
  IC50: 6 µM

## COc1c(C(=O)NNS(=O)(=O)c2cccc(C)c2)oc2c(OC)cccc12 [Example 64, 2-Benzofurancarboxylic acid, 3,7-dimethoxy-, 2-[(3-methylphenyl)sulfonyl]-hydrazide]
Rat BCAT cytosolic form
  IC50: 0.19 µM
[1]
  IC50: 3.31 µM
